{"source": "paper PMC8213057", "about": "“Targeting ALK2: An Open Science Approach to Developing Therapeutics for the Treatment of Diffuse Intrinsic Pontine Glioma” (Journal of Medicinal Chemistry, 2020)", "key": {"PKMYT1": {"biological_target": "T1, PKMYT1 (Homo sapiens, UniProt Q99640)", "T1 sequence (Q99640 1-499)": "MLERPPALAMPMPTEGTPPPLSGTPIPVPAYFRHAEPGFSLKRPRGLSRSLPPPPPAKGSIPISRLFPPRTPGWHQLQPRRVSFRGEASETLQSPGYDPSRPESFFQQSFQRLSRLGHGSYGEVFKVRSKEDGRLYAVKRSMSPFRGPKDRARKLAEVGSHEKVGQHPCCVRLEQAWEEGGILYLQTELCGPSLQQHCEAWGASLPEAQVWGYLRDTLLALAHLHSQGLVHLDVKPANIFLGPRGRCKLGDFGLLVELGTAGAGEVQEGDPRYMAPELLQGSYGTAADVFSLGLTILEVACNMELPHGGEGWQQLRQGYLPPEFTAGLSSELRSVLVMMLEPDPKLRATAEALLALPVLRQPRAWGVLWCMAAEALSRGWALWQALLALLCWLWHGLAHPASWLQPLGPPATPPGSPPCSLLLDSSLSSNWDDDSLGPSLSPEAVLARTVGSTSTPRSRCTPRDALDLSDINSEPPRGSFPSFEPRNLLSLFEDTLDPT", "conditions": "1 μM; Run 1, Run 2"}, "FAK/PTK2": {"biological_target": "FAK/PTK2 (Homo sapiens, UniProt Q05397)", "sequence (Q05397 whole entry)": "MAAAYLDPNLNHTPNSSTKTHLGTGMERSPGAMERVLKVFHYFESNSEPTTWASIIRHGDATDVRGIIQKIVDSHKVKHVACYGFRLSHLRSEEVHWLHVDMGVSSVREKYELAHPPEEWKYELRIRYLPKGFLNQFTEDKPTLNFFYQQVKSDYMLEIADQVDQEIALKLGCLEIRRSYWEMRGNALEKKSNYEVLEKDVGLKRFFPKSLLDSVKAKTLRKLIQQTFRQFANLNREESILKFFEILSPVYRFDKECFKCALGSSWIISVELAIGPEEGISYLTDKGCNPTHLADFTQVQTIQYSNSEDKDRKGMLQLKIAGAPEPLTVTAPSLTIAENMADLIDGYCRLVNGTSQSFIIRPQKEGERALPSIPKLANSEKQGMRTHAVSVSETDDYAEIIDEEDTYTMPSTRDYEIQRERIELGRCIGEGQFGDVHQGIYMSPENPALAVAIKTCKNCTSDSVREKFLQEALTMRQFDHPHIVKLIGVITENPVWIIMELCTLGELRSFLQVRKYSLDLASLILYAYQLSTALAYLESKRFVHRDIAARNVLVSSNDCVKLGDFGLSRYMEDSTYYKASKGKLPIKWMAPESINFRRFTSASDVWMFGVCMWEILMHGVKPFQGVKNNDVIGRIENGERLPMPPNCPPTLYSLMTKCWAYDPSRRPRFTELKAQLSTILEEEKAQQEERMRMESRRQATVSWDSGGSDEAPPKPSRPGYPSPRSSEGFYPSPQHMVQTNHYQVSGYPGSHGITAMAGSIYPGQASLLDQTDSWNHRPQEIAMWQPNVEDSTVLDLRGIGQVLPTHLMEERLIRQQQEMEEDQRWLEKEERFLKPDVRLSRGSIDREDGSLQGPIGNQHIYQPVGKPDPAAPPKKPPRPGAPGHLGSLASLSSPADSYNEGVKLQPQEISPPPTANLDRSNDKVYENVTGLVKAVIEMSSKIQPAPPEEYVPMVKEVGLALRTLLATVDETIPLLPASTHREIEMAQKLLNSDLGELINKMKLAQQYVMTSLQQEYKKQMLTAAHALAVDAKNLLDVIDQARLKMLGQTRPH", "assay": "biochemical", "conditions": "read-out: % enzyme activity, 1 μM; Run 1, Run 2"}, "TGFBR2": {"biological_target": "T2, TGFBR2 (Homo sapiens, UniProt P37173)", "T2 construct": "purchased Reaction Biology Corporation", "T2 sequence (P37173 23-567)": "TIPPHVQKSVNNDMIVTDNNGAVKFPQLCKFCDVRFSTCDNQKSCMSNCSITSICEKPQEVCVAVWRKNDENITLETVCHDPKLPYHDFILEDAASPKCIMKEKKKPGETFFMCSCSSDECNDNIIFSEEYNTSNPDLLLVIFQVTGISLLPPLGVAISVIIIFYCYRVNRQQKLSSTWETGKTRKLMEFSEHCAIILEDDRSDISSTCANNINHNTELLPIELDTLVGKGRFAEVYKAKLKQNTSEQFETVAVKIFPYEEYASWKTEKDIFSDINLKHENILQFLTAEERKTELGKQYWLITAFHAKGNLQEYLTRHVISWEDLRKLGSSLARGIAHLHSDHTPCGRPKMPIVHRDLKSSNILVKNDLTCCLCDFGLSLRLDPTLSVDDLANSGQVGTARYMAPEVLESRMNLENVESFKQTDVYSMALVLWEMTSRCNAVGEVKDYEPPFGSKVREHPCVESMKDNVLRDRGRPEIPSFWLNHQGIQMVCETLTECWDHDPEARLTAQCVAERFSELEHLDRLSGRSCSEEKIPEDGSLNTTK", "assay": "375-member kinase panel", "format": "biochemical", "conditions": "Run 1, Run 2; for % enzyme activity: 1 μM; for remaining activity at 1 µM: read-out: % enzyme activity, 1 μM"}, "NEK1": {"biological_target": "T3, NEK1 (Homo sapiens, UniProt Q96PY6)", "T3 sequence (Q96PY6 1-1258)": "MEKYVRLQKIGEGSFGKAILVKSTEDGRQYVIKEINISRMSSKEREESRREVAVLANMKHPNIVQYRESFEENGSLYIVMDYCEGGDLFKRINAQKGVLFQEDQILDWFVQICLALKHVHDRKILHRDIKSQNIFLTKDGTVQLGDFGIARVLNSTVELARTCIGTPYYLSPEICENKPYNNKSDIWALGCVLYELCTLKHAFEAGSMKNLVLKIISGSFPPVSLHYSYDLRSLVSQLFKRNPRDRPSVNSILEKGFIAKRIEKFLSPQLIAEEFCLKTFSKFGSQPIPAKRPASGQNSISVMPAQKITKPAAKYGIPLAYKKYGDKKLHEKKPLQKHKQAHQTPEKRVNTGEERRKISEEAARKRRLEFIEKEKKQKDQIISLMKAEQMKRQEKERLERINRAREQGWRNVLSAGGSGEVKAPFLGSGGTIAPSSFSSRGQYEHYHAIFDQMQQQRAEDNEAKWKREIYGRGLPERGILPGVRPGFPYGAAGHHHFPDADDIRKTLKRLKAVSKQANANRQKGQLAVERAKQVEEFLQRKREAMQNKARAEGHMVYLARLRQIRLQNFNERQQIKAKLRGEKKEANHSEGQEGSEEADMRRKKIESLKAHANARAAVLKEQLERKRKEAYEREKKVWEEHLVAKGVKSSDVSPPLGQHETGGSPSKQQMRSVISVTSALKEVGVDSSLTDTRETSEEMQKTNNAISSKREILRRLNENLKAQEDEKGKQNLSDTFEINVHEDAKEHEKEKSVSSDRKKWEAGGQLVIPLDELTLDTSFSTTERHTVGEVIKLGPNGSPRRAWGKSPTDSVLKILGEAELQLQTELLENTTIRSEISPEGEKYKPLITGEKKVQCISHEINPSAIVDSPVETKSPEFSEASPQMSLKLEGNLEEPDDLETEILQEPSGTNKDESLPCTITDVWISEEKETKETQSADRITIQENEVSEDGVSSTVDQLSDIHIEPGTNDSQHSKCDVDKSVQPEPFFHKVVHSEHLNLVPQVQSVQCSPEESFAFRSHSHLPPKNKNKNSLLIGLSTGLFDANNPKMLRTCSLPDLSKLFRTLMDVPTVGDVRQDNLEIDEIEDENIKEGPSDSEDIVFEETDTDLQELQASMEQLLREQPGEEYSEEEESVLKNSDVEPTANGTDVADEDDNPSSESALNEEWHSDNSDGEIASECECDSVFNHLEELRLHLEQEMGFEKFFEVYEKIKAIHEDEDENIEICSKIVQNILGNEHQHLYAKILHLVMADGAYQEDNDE", "assay": "biochemical", "conditions": "read-out: % enzyme activity, 1 μM; Run 1, Run 2"}, "MARK2/PAR-1Ba": {"biological_target": "MARK2/PAR-1Ba (Homo sapiens, UniProt Q7KZI7)", "assay": "biochemical", "conditions": "read-out: % enzyme activity, 1 μM; Run 1, Run 2"}, "LIMK1": {"biological_target": "LIMK1 (Homo sapiens, UniProt P53667)", "assay": "biochemical", "conditions": "read-out: % enzyme activity, 1 μM; Run 1, Run 2"}, "BTK": {"biological_target": "BTK (Homo sapiens, UniProt Q06187)", "sequence (Q06187 whole entry)": "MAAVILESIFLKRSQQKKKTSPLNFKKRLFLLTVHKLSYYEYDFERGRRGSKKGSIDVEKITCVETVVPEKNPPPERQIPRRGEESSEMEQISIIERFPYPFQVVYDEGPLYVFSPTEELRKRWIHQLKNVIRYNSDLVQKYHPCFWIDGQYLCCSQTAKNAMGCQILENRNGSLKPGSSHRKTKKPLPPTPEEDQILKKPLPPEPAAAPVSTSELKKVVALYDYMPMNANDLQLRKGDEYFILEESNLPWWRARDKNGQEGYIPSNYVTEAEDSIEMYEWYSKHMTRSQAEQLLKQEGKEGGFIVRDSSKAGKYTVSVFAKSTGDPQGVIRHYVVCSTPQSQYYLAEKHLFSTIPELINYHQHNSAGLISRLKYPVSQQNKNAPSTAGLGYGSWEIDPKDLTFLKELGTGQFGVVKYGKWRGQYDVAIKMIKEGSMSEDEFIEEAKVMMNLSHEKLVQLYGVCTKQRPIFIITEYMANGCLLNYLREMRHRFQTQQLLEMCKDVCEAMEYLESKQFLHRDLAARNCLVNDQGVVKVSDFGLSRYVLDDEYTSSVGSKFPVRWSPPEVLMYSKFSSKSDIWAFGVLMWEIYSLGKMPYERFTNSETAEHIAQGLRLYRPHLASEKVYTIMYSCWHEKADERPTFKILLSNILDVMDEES", "assay": "biochemical", "conditions": "read-out: % enzyme activity, 1 μM; Run 1, Run 2"}, "MARK1": {"biological_target": "MARK1 (Homo sapiens, UniProt Q9P0L2)", "sequence (Q9P0L2 whole entry)": "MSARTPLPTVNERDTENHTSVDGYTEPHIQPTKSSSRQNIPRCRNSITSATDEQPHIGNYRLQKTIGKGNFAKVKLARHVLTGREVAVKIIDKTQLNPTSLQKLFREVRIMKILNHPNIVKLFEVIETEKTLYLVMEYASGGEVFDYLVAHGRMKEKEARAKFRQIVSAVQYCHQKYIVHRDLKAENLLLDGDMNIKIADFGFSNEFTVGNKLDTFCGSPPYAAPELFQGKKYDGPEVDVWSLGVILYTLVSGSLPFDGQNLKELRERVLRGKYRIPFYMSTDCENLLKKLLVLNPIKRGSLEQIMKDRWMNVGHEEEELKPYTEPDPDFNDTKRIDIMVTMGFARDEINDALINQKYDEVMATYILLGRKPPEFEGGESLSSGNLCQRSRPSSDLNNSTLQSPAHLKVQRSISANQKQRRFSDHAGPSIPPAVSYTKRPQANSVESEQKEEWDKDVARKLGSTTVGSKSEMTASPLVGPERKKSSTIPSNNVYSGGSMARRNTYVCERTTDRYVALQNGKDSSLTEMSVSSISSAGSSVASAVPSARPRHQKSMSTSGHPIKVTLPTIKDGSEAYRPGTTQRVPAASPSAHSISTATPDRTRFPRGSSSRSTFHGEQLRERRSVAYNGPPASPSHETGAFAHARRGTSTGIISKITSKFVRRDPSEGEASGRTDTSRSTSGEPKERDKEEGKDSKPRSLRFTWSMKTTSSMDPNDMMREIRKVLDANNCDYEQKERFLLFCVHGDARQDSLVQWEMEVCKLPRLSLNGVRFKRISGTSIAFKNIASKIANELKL", "conditions": "1 μM; Run 1, Run 2"}, "CLK1": {"biological_target": "CLK1 (Homo sapiens, UniProt P49759)", "sequence (P49759 whole entry)": "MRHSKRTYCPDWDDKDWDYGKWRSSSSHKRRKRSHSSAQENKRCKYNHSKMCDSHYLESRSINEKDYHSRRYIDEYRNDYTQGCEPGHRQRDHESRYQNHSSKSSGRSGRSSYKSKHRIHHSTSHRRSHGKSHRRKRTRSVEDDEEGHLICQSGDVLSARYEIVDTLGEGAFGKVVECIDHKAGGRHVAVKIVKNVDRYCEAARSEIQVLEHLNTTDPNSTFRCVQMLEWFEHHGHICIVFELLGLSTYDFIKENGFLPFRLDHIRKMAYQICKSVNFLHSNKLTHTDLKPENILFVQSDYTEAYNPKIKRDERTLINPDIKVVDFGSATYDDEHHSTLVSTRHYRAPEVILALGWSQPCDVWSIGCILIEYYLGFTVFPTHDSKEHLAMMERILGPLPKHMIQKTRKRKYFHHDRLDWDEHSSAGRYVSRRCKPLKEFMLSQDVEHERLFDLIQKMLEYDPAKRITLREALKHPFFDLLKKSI", "assay": "biochemical", "conditions": "read-out: % enzyme activity, 1 μM; Run 1, Run 2"}, "MEKK3": {"biological_target": "T4, MEKK3 (Homo sapiens, UniProt Q99759)", "T4 sequence (Q99759 1-626)": "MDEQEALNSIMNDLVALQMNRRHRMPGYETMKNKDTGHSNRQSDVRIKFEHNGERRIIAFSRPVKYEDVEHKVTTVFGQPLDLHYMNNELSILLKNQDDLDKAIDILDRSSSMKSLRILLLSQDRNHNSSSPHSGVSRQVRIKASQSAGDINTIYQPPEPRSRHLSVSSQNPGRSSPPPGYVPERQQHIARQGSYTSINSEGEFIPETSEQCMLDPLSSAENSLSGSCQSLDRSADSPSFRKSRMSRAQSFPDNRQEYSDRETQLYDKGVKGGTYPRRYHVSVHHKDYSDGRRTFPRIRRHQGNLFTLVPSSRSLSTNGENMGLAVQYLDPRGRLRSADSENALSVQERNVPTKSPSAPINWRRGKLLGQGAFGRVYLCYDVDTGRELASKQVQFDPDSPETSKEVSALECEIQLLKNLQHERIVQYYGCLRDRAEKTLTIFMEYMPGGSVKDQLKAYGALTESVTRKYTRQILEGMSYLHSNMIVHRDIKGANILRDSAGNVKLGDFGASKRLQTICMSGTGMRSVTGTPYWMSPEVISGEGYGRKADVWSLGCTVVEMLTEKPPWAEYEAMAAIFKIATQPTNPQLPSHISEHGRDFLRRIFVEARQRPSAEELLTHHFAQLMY", "assay": "biochemical", "conditions": "read-out: % enzyme activity, 1 μM; Run 1, Run 2"}, "TNIK": {"biological_target": "T5, TNIK (Homo sapiens, UniProt Q9UKE5)", "T5 construct": "purchased Reaction Biology Corporation", "T5 sequence (Q9UKE5 whole entry)": "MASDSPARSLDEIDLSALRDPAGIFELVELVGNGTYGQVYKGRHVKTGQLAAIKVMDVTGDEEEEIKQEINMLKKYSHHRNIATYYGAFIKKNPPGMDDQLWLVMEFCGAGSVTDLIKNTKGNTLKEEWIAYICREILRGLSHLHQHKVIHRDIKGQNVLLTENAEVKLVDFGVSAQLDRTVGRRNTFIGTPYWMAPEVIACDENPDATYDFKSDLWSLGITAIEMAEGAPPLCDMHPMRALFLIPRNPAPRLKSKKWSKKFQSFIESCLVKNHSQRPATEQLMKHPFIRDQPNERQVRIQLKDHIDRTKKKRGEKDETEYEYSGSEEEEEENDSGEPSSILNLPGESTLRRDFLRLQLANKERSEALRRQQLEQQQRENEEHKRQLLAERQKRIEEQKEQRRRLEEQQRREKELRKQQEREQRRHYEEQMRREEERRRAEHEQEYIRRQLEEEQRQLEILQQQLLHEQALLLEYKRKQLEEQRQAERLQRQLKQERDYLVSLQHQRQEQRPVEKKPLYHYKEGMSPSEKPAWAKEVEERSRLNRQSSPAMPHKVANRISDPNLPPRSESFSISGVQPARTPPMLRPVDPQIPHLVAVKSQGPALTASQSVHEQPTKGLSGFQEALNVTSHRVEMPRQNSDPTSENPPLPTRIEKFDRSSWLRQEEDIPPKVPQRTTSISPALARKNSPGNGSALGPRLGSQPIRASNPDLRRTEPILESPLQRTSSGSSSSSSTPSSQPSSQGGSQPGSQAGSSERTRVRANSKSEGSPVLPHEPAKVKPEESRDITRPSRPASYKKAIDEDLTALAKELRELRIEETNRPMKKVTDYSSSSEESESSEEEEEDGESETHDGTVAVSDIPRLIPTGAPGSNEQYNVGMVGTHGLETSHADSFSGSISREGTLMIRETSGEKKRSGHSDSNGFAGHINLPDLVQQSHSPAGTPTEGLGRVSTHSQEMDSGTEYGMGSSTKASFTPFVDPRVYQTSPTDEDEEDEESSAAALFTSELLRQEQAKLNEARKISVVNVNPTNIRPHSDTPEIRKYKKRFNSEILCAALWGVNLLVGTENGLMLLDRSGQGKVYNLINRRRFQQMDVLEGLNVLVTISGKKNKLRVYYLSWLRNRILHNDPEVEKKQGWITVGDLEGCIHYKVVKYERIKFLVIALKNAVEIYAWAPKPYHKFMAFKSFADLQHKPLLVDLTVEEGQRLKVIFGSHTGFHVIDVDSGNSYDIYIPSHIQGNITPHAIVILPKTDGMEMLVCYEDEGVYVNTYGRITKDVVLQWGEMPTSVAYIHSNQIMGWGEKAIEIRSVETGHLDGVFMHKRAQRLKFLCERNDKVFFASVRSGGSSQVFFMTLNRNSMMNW", "assay": "375-member kinase panel", "format": "biochemical", "conditions": "Run 1, Run 2; for % enzyme activity: 1 μM"}}, "note": "Where “and” joins values, the source holds several entries; their conditions need not be identical. Equal entries are not always repeated.", "data": [{"smiles": "COc1cc(-c2cncc(-c3ccc(N4CCN(C)CC4)cc3)c2C)cc(F)c1C(N)=O", "note": "[Compound 26a, 2-Fluoro-6-methoxy-4-(4-methyl-5-(4-(4-methylpiperazin-1-yl)phenyl)pyridin-3-yl)benzamide]", "values": [{"measurement": "% enzyme activity", "setting": "PKMYT1", "result": 100.09, "unit": "%"}, {"measurement": "remaining activity at 1 µM", "setting": "FAK/PTK2", "result": 94, "unit": "%"}, {"measurement": "% enzyme activity", "setting": "TGFBR2", "result": 97.44, "unit": "%"}, {"measurement": "remaining activity at 1 µM", "setting": "TGFBR2", "result": 103, "unit": "%"}, {"measurement": "remaining activity at 1 µM", "setting": "NEK1", "result": 87.6, "unit": "%"}, {"measurement": "remaining activity at 1 µM", "setting": "MARK2/PAR-1Ba", "result": 92.8, "unit": "%"}, {"measurement": "remaining activity at 1 µM", "setting": "LIMK1", "result": 65.1, "unit": "%"}, {"measurement": "remaining activity at 1 µM", "setting": "BTK", "result": 95.3, "unit": "%"}, {"measurement": "% enzyme activity", "setting": "MARK1", "result": 87.63, "unit": "%"}, {"measurement": "remaining activity at 1 µM", "setting": "CLK1", "result": 97.8, "unit": "%"}, {"measurement": "remaining activity at 1 µM", "setting": "MEKK3", "result": 98, "unit": "%"}, {"measurement": "% enzyme activity", "setting": "TNIK", "result": "-0.77% and -2.62%"}]}, {"smiles": "COc1cc(-c2cncc(-c3ccc(N4C[C@@H](C)N(C)[C@@H](C)C4)cc3)c2C)cc(F)c1C(N)=O", "note": "[Compound 26c, 2-Fluoro-6-methoxy-4-(4-methyl-5-(4-((3R,5S)-3,4,5-trimethylpiperazin-1-yl)phenyl)pyridin-3-yl)benzamide]", "values": [{"measurement": "% enzyme activity", "setting": "PKMYT1", "result": 92.38, "unit": "%"}, {"measurement": "remaining activity at 1 µM", "setting": "FAK/PTK2", "result": 95.4, "unit": "%"}, {"measurement": "% enzyme activity", "setting": "TGFBR2", "result": 105.33, "unit": "%"}, {"measurement": "remaining activity at 1 µM", "setting": "TGFBR2", "result": 106, "unit": "%"}, {"measurement": "remaining activity at 1 µM", "setting": "NEK1", "result": 88.1, "unit": "%"}, {"measurement": "remaining activity at 1 µM", "setting": "MARK2/PAR-1Ba", "result": 104, "unit": "%"}, {"measurement": "remaining activity at 1 µM", "setting": "LIMK1", "result": 74.2, "unit": "%"}, {"measurement": "remaining activity at 1 µM", "setting": "BTK", "result": 96.5, "unit": "%"}, {"measurement": "% enzyme activity", "setting": "MARK1", "result": 89.90, "unit": "%"}, {"measurement": "remaining activity at 1 µM", "setting": "CLK1", "result": 88, "unit": "%"}, {"measurement": "remaining activity at 1 µM", "setting": "MEKK3", "result": 109, "unit": "%"}, {"measurement": "% enzyme activity", "setting": "TNIK", "result": 3.92, "unit": "%"}, {"measurement": "remaining activity at 1 µM", "setting": "TNIK; read-out: % enzyme activity, 1 μM", "result": 4.85, "unit": "%"}]}]}
